Read-outs that look alike come from different tables or passages of the source.
Molecular target: Ghrelin receptor (Homo sapiens, UniProt Q92847)
Experiment: Receptor Selection and Amplification Technology (R-SAT) assay
Type: cell-based
Set-up: expressed in transfected cells; host or cells: NIH3T3
Conditions: for IC50: '—' not defined (nd used separately), read-out: RSAT pIC50 (converted); for Emax: read-out: RSAT Eff(%)
[1] = negative logarithm of ligand concentration causing 50% inhibition of constitutive receptor response, transfected NIH3T3 cells
[2] = percent inhibition at saturating ligand, normalized to reference ligand Substance P analog = 100%

Ghrelin receptor, sequence (Q92847 whole entry): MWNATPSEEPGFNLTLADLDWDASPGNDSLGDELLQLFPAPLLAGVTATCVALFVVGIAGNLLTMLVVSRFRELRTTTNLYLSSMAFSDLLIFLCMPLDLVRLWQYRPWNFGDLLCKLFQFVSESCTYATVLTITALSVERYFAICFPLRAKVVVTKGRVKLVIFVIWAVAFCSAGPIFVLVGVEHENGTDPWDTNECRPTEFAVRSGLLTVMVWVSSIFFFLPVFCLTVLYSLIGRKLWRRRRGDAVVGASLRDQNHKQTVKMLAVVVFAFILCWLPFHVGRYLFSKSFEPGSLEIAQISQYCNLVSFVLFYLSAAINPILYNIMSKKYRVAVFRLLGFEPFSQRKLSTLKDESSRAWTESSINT

Structure (SMILES) | IC50 [1] [µM] | Emax [%] | Emax [2] [%] | also measured
COc1cccc2c(C(=O)NCC(C)C)cn(CCCN3C4CCC3CC(Oc3ccc(F)cc3)C4)c12 (stereo not shown) | 0.0794 |  |  | RSAT Eff(%) [2]: 147%
COc1cccc2c(C(C)=O)cn(CC(C)CN3C4CCC3CC(Oc3ccc(F)cc3)C4)c12 (stereo not shown) |  | 44 |  | 
CC(=O)c1cn(CC(O)CN2CCC(C(=O)c3ccccc3)CC2)c2ccccc12 (stereo not shown) | 6.31 |  | 26 | 
CC(=O)CCc1cn(CCCN2C3CCC2CC(OCC2CC2)C3)c2ccccc12 (stereo not shown) | 3.16 |  | 103 | 
COc1ccc2c(c1)c(C(C)=O)cn2CCCN1C2CCC1CC(OCC1CC1)C2 (stereo not shown) | 31.6 |  | 74 | 
COc1cccc2c(C(C)=O)cn(CCCN3C4CCC3CC(O)(c3ccc(F)cc3)C4)c12 (stereo not shown) |  | 3 |  | 
COc1cccc2c(C(=O)C3CC3)cn(CCCN3CCC(N4C(=O)Cc5ccccc54)CC3)c12 |  |  |  | RSAT Eff(%): 110%; IC50 ([…]): 0.0398 µM
COc1cccc2c(C(=O)Cc3ccccc3)cn(CCCN3CCCC(Oc4ccc(Cl)cc4)C3)c12 (stereo not shown) |  | 86 |  | IC50 ([…]): 0.316 µM
COc1cccc2c(C(=O)NCc3cccc(Cl)c3)cn(CCCN3CCCN(Cc4ccccc4Cl)CC3)c12 |  | 107 |  | IC50 ([…]): 0.02 µM
COc1cccc2c(C(=O)NCC(C)C)cn(CCCN3CCC(Oc4cccc(Cl)c4)CC3)c12 | 0.0316 | 71 |  | 
CC(=O)c1cn(CCCN2CCN(CCOc3ccccc3)CC2)c2c(Cl)cccc12 | 0.2 |  | 91 | 
CC(c1ccccc1)N1CCN(CCCn2cc(C(=O)C(F)(F)F)c3ccccc32)CC1 (stereo not shown) | 0.251 |  | 92 | 
COc1cccc2c(C(=O)C3CC3)cn(CCCN3CCC(c4nc5ccccc5s4)CC3)c12 |  | 88 |  | IC50 ([…]): 0.501 µM
COc1ccccc1C1CCN(CCCCn2cc(C(C)=O)c3ccccc32)CC1 | 2 |  | 58 | 
CC(=O)c1c(C)n(CCCN2CCCN(Cc3ccc(F)cc3)CC2)c2c(Br)cccc12 | 0.398 |  | 49 | 
CCCCC1CCN(CCCn2cc(C(C)=O)c3cccc(Cl)c32)CC1 | 0.316 |  | 80 | 
CC(=O)c1cn(CCCN2CCCN(Cc3ccc(F)cc3)CC2)c2ncccc12 | 0.00501 |  | 136 | 
COc1cccc2c(C(=O)C3CC3)cn(CCCN3CCC(C(=O)c4ccccc4)CC3)c12 |  | 100 |  | IC50 ([…]): 0.398 µM
COc1ccc2c(C(C)=O)cn(CCCN3CCC(Oc4ccc(F)cc4)CC3)c2c1 | 0.158 |  | 70 | 
CCC(=O)c1cn(CCCN2CCC(C(=O)c3ccccc3)CC2)c2ccccc12 | 15.8 |  | 53 | 
COc1cccc2c(C(=O)NCC(C)C)cn(CCCN3CCCC(Oc4ccc(Cl)cc4)C3)c12 (stereo not shown) |  | 9 |  | 
O=C(c1cn(CCCN2CCC(O)(Cc3ccccc3)CC2)c2ccccc12)C(F)(F)F | 3.98 |  | 111 | 
CC(=O)c1cn(CCCN2CCC(Oc3ccc(F)cc3)CC2)c2ccccc12.O=C(O)C(=O)O [drawing 520] | 0.251 |  |  | RSAT Eff(%) [2]: 128%
CC(=O)c1cn(CCCN2CCC(CCOc3ccc(Cl)cc3)CC2)c2c(Cl)cccc12 |  | 53 |  | 
COc1cccc2c(C(C)=O)cn(CCCN3CCN(CC4CCCO4)CC3)c12 (stereo not shown) | 0.631 |  | 98 | 
CC(=O)c1cn(CCCN2C3CCC2CC(CCc2ccc(Cl)cc2)C3)c2c(Br)cccc12 (stereo not shown) | 0.0398 |  | 106 | 
COc1cccc2c(C(=O)NCc3cccc(C)c3)cn(CCCN3CCN(c4ncc(C(F)(F)F)cc4Cl)CC3)c12 |  | 80 |  | IC50 ([…]): 0.0398 µM

Structure (SMILES) | IC50 [1] [µM] | Emax [%] | Emax [2] [%] | also measured
CCc1cccc2c(C(C)=O)cn(CCCN3CCN(CCOc4ccc(Cl)cc4)CC3)c12 |  | 24 |  | 
CC(=O)c1c(C)n(CCCN2CCN(CCOc3ccc(Cl)cc3)CC2)c2c(Br)cccc12 |  | -13 |  | 
COc1cccc2c(C(C)=O)cn(CCCN3CCC4(CC3)C(=O)NCN4c3ccccc3)c12 | 0.316 | 38 |  | 
CC(=O)c1cn(CCCN2CCN(c3ncc(C(F)(F)F)cc3Cl)CC2)c2c(C#N)cccc12 | 0.0794 |  | 106 | 
COc1ccccc1C1CCN(CCCn2cc(C(=O)CC(C)C)c3ccccc32)CC1 | 0.631 |  | 100 | 
COc1cccc2c(C(C)=O)cn(CC(C)CNCCOc3ccccc3)c12 (stereo not shown) |  | 29 |  | 
CC(=O)c1cn(CCCN2CCC(Oc3ccccc3Cl)CC2)c2ccccc12 [drawing 499] |  |  | 105 | 
COc1cccc2c(C(=O)C3CC3)cn(CCCN3CCC(CCOc4ccc(Cl)cc4)CC3)c12 |  | 89 |  | IC50 ([…]): 0.316 µM
O=C(c1cn(CCCN2C3CCC2CC(OCC2CC2)C3)c2ccccc12)C(F)(F)F (stereo not shown) | 0.501 |  | 103 | 
CCCCC(=O)c1cn(CCCN2CCC(CCCC)CC2)c2ccc(OC)cc12 | 0.158 |  | 104 | 
CC(=O)c1cn(CCCN2C3CCC2CC(CC(=O)c2ccccc2)C3)c2c(Cl)cccc12 (stereo not shown) |  | 85 |  | IC50 ([…]): 1.58 µM
COc1cccc2c(C#N)cn(CCCN3CCN(CCOc4ccc(Cl)c5ccccc45)CC3)c12 |  |  | 21 | 
CC(=O)c1c(C)n(CCCNCCOc2ccccc2)c2c(Br)cccc12 |  | 5 |  | 
COc1cccc2c(C(=O)Cc3ccccc3)cn(CCCN3CCC(c4nc(-c5ccncc5)no4)CC3)c12 |  | 137 |  | IC50 ([…]): 0.0251 µM
COc1cccc2c(C#N)cn(CCCN3CCC(N4C(=O)Cc5ccccc54)CC3)c12 |  |  |  | RSAT Eff(%): 33%
CCCOC1CCN(CCCn2cc(C(C)=O)c3ccccc32)CC1 |  | 112 |  | IC50 ([…]): 0.631 µM
CC(=O)c1cn(CCCNCCOc2ccccc2)c2c(C)cccc12 | 0.0398 |  | 100 | 
COc1cccc2c(C(C)=O)cn(CC(C)CN3CCCC(Oc4ccc(Cl)cc4)C3)c12 (stereo not shown) |  | -1 |  | 
CC(=O)c1cn(CCCN2CCCN(CCc3ccccc3)CC2)c2c(C#N)cccc12 | 0.0398 |  | 83 | 
COc1cccc2c(C(=O)C3CC3)cn(CCCN3CCN(CCOc4ccc(Cl)c5ccccc45)CC3)c12 |  | 44 |  | 
CCCCC(=O)c1cn(CCCN2CCN(C(C)c3ccccc3)CC2)c2ccc(OC)cc12 (stereo not shown) | 1.26 |  | 81 | 
COc1ccc2c(C(C)=O)cn(CCCN3CCC(C(=O)c4ccccc4)CC3)c2c1 | 0.794 |  | 66 | 
CCCCC1CCN(CCCn2cc(C(=O)C(F)(F)F)c3ccccc32)CC1 | 0.501 |  | 74 | 
CC(=O)c1cn(CCCN2CCC(N3C(=O)Cc4ccccc43)CC2)c2c(C#N)cccc12 |  |  |  | RSAT Eff(%): 133%; IC50 ([…]): 0.02 µM
O=C(c1cn(CCCN2CCC(S(=O)(=O)c3ccc(Cl)cc3)CC2)c2ccccc12)C(F)(F)F |  | 6 |  | 
CC(=O)c1cn(CCCN2C3CCC2CC(CCc2ccccc2)C3)c2c(Cl)cccc12 (stereo not shown) | 0.0126 |  | 109 | 
CC(=O)c1cn(CCCN2CCCN(Cc3ccc(F)cc3)CC2)c2c(Br)cccc12 | 0.00501 |  | 95 | 

Structure (SMILES) | IC50 [1] [µM] | Emax [%] | Emax [2] [%] | also measured
COc1cccc2c(C(=O)NCc3cccc(Cl)c3)cn(CCCN3CCN(CCOc4ccc(Cl)c5ccccc45)CC3)c12 |  | 59 |  | 
CC(C)CC(=O)c1cn(CCCN2CCC(c3nc4c(s3)C=CCC4)CC2)c2ccccc12 |  | 108 |  | IC50 ([…]): 0.126 µM
CCOC(=O)C1CCN(CCCn2cc(C(C)=O)c3cccc(OC)c32)CC1 | 0.398 |  | 127 | 
COc1cccc2c(C(=O)C3CC3)cn(CCCN3CCC(Oc4ccc(Cl)cc4)CC3)c12 |  | 90 |  | IC50 ([…]): 0.501 µM
COc1cccc2c(C(=O)NCc3cccc(Cl)c3)cn(CCCN3C4CCC3CC(CCc3ccc(Cl)cc3)C4)c12 (stereo not shown) |  | 127 |  | IC50 ([…]): 0.000794 µM
O=C(c1cn(CCCNC2Cc3ccccc3C2)c2ncccc12)C(F)(F)F |  |  | -3 | 
CC(=O)c1cn(CCCN2CCC(c3nc(-c4ccncc4)no3)CC2)c2ncccc12 |  |  | 88 | 
COc1cccc2c(C(C)=O)cn(CCCN3CCN(CC(=O)N4CCOCC4)CC3)c12 |  | 37 |  | IC50 ([…]): 1.58 µM
COc1cccc2c(C(=O)NCc3cccc(C)c3)cn(CCCN3CCN(CCOc4ccc(Cl)c5ccccc45)CC3)c12 |  | 2 |  | 
COc1cccc2c(C(=O)NCc3cccc(Cl)c3)cn(CCCN3CCN(c4ncc(C(F)(F)F)cc4Cl)CC3)c12 |  | 107 |  | IC50 ([…]): 0.0398 µM
COc1cccc2c(C(C)=O)cn(CC(C)CN3CCN(Cc4ccc(Cl)cc4Cl)CC3)c12 (stereo not shown) | 0.2 |  | 78 | 
CC(=O)c1cn(CC(C)CN2C3CCC2CC(OCC2CC2)C3)c2ccccc12 (stereo not shown) | 0.398 |  | 65 | 
CCCCC1CCN(CCCn2cc(C(=O)CC)c3ccccc32)CC1 | 1 |  | 92 | 
COc1cccc2c(C(=O)NCC(C)C)cn(CCCN3CCN(c4ncc(C(F)(F)F)cc4Cl)CC3)c12 |  | 100 |  | IC50 ([…]): 0.0316 µM
COc1cccc2c(C(=O)C3CC3)cn(CCCN3C4CCC3CC(Oc3ccccc3Cl)C4)c12 (stereo not shown) |  | 130 |  | IC50 ([…]): 0.158 µM
COc1cccc2c(C(C)=O)cn(CC(C)CN3CCN(c4ncc(C(F)(F)F)cc4Cl)CC3)c12 (stereo not shown) | 0.158 |  | 95 | 
COc1cccc2c(C(=O)Cc3ccccc3)cn(CCCNC3Cc4ccccc4C3)c12 |  | 103 |  | IC50 ([…]): 0.0501 µM
COc1cccc2c(C(=O)NCC(C)C)cn(CCCN3C4CCC3CC(CCc3ccccc3)C4)c12 (stereo not shown) |  | 86 |  | IC50 ([…]): 0.0158 µM
O=C(c1cn(CCCN2CCCC(Oc3ccc(Cl)cc3)C2)c2ncccc12)C(F)(F)F (stereo not shown) |  |  | 2 | 
COc1ccc2c(c1)c(C(C)=O)cn2CCCN1CCC(c2ccccc2OC)CC1 | 2 |  | 66 | 
CCCOC1CCN(CCCn2cc(C(C)=O)c3ccc(OC)cc32)CC1 | 1.26 |  | 61 | 
COc1ccc2c(c1)c(C(C)=O)cn2CCCN1CCC(Oc2ccc(Cl)cc2)CC1 | 0.501 |  | 104 | 
O=C(c1cn(CCCN2CCCN(CCc3ccccc3)CC2)c2ncccc12)C(F)(F)F |  |  | 51 | 
CC(=O)c1cn(CCCN2C3CCC2CC(CC(=O)c2ccc(Cl)cc2)C3)c2c(Br)cccc12 (stereo not shown) |  | 33 |  | 
CCc1cccc2c(C(C)=O)cn(CCCN3CCC(c4nc(-c5cccnc5)no4)CC3)c12 |  | 61 |  | 

Source: patent US20070213359A1 (ACADIA Pharmaceuticals Inc., priority 2005, published 2007)
